From ChEMBL document CHEMBL2413072, “Synthesis and in vitro anticancer studies of novel C-2 arylidene congeners of lantadenes” (2013)

Tests used:
Format in all cases: functional
[1] = test system: OVCAR-8; assay: Growth inhibition of human OVCAR8 cells assessed as cell growth at 10^-8 M by sulforhodamine B assay; details: read-out: Activity
[2] = test system: HT-29; assay: Growth inhibition of human HT-29 cells assessed as cell growth at 10^-6 M by sulforhodamine B assay; details: read-out: Activity
[3] = test system: SK-MEL-28; assay: Growth inhibition of human SK-MEL-28 cells assessed as cell growth at 10^-8 M by sulforhodamine B assay; details: read-out: Activity
[4] = test system: TK-10; assay: Growth inhibition of human TK10 cells assessed as cell growth at 10^-8 M by sulforhodamine B assay; details: read-out: Activity
[5] = test system: HOP-92; assay: Growth inhibition of human HOP92 cells by sulforhodamine B assay
[6] = test system: T47D; assay: Growth inhibition of human T47D cells assessed as cell growth at 10^-8 M by sulforhodamine B assay; details: read-out: Activity
[7] = test system: SF-539; assay: Growth inhibition of human SF539 cells assessed as cell growth at 10^-6 M by sulforhodamine B assay; details: read-out: Activity
[8] = test system: MDA-MB-435; assay: Growth inhibition of human MDA-MB-435 cells assessed as cell growth at 10^-7 M by sulforhodamine B assay; details: read-out: Activity
[9] = test system: MDA-MB-231; assay: Growth inhibition of human MDA-MB-231 cells by sulforhodamine B assay
[10] = test system: CAKI-1; assay: Growth inhibition of human CAKI-1 cells assessed as cell growth at 10^-7 M by sulforhodamine B assay; details: read-out: Activity
[11] = test system: BT-549; assay: Growth inhibition of human BT549 cells assessed as cell growth at 10^-6 M by sulforhodamine B assay; details: read-out: Activity
[12] = test system: SN12C; assay: Growth inhibition of human SN12C cells by sulforhodamine B assay
[13] = test system: SW-620; assay: Growth inhibition of human SW620 cells assessed as cell growth at 10^-6 M by sulforhodamine B assay; details: read-out: Activity
[14] = test system: UACC-62; assay: Growth inhibition of human UACC62 cells assessed as cell growth at 10^-4 M by sulforhodamine B assay; details: read-out: Activity
[15] = test system: Malme-3M; assay: Growth inhibition of human MALME-3M cells assessed as cell growth at 10^-8 M by sulforhodamine B assay; details: read-out: Activity
[16] = test system: TK-10; assay: Growth inhibition of human TK10 cells assessed as cell growth at 10^-4 M by sulforhodamine B assay; details: read-out: Activity
[17] = test system: HT-29; assay: Growth inhibition of human HT-29 cells assessed as cell growth at 10^-4 M by sulforhodamine B assay; details: read-out: Activity
[18] = test system: SK-MEL-28; assay: Growth inhibition of human SK-MEL-28 cells assessed as cell growth at 10^-4 M by sulforhodamine B assay; details: read-out: Activity
[19] = test system: SK-MEL-2; assay: Growth inhibition of human SK-MEL-2 cells by sulforhodamine B assay
[20] = test system: COLO 205; assay: Growth inhibition of human COLO205 cells assessed as cell growth at 10^-7 M by sulforhodamine B assay; details: read-out: Activity
[21] = test system: A498; assay: Growth inhibition of human A498 cells assessed as cell growth at 10^-7 M by sulforhodamine B assay; details: read-out: Activity
[22] = test system: IGROV-1; assay: Growth inhibition of human IGROV1 cells assessed as cell growth at 10^-8 M by sulforhodamine B assay; details: read-out: Activity
[23] = test system: HL-60(TB); assay: Growth inhibition of human HL-60(TB) cells assessed as cell growth at 10^-7 M by sulforhodamine B assay; details: read-out: Activity
[24] = test system: SF-295; assay: Growth inhibition of human SF295 cells assessed as cell growth at 10^-6 M by sulforhodamine B assay; details: read-out: Activity
[25] = test system: MDA-MB-435; assay: Growth inhibition of human MDA-MB-435 cells assessed as cell growth at 10^-8 M by sulforhodamine B assay; details: read-out: Activity
[26] = test system: NCI-H23; assay: Growth inhibition of human NCI-H23 cells by sulforhodamine B assay
[27] = test system: NCI-H460; assay: Growth inhibition of human NCI-H460 cells assessed as cell growth at 10^-4 M by sulforhodamine B assay; details: read-out: Activity
[28] = test system: HCT-15; assay: Growth inhibition of human HCT15 cells assessed as cell growth at 10^-7 M by sulforhodamine B assay; details: read-out: Activity
[29] = test system: CCRF-CEM; assay: Growth inhibition of human CCRF-CEM cells by sulforhodamine B assay
[30] = test system: CCRF-CEM; assay: Growth inhibition of human CCRF-CEM cells assessed as cell growth at 10^-7 M by sulforhodamine B assay; details: read-out: Activity
[31] = test system: SF-539; assay: Growth inhibition of human SF539 cells assessed as cell growth at 10^-7 M by sulforhodamine B assay; details: read-out: Activity
[32] = test system: A549; assay: Growth inhibition of human A549/ATCC cells assessed as cell growth at 10^-7 M by sulforhodamine B assay; details: read-out: Activity
[33] = test system: NCI-H522; assay: Growth inhibition of human NCI-H522 cells assessed as cell growth at 10^-7 M by sulforhodamine B assay; details: read-out: Activity
[34] = test system: NCI-H522; assay: Growth inhibition of human NCI-H522 cells assessed as cell growth at 10^-8 M by sulforhodamine B assay; details: read-out: Activity
[35] = Growth inhibition of human HCC2998 cells assessed as cell growth at 10^-8 M by sulforhodamine B assay; details: HCC 2998, read-out: Activity
[36] = test system: OVCAR-4; assay: Growth inhibition of human OVCAR4 cells assessed as cell growth at 10^-8 M by sulforhodamine B assay; details: read-out: Activity
[37] = test system: DU-145; assay: Growth inhibition of human DU145 cells assessed as cell growth at 10^-7 M by sulforhodamine B assay; details: read-out: Activity
[38] = test system: 786-0; assay: Growth inhibition of human 786-0 cells assessed as cell growth at 10^-8 M by sulforhodamine B assay; details: read-out: Activity
[39] = test system: UACC-257; assay: Growth inhibition of human UACC257 cells assessed as cell growth at 10^-8 M by sulforhodamine B assay; details: read-out: Activity
[40] = test system: HCT-116; assay: Growth inhibition of human HCT116 cells assessed as cell growth at 10^-6 M by sulforhodamine B assay; details: read-out: Activity
[41] = read-out: LC50 (the source's name)
[42] = read-out: pLC50 (the source's name) (converted)

`CC1(C)C[C@@H](O)[C@]2(C(=O)O)CC[C@]3(C)C(=CC[C@@H]4[C@@]5(C)C/C(=C\C=C\c6ccccc6)C(=O)C(C)(C)[C@@H]5CC[C@]43C)[C@@H]2C1` gave a growth at 0.01 µM [1] of 95%, a growth at 1 µM [2] of 99% and a growth at 0.01 µM [3] of 99%. It also gave a growth at 0.01 µM [4] of 98%, a GI50 ([5]; read-out: GI50) of 1920 nM and a CC50 [5, 41] of 36.6 µM. It also gave a TGI ([5]; read-out: TGI) of 6.67 µM, a GI50 ([5]; read-out: pGI50 (converted)) of 1910 nM and a CC50 [5, 42] of 36.3 µM. It also gave a TGI ([5]; read-out: pTGI (converted)) of 6.61 µM, a growth at 0.01 µM [6] of 101% and a growth at 1 µM [7] of 90%. It also gave a growth at 0.1 µM [8] of 96%, a GI50 ([9]; read-out: GI50) of 2020 nM and a CC50 [9, 41] of 12.5 µM. It also gave a TGI ([9]; read-out: TGI) of 4.68 µM, a GI50 ([9]; read-out: pGI50 (converted)) of 2040 nM and a CC50 [9, 42] of 12.6 µM. For the same compound, the TGI ([9]; read-out: pTGI (converted)) was 4.68 µM, the growth at 0.1 µM [10] was 97% and the growth at 1 µM [11] was 100%. It also gave a GI50 ([12]; read-out: GI50) of 2920 nM, a CC50 [12, 41] of 36.1 µM and a TGI ([12]; read-out: TGI) of 10.7 µM. It also gave a GI50 ([12]; read-out: pGI50 (converted)) of 2880 nM, a CC50 [12, 42] of 36.3 µM and a TGI ([12]; read-out: pTGI (converted)) of 10.7 µM. The growth at 1 µM [13] was 91%, the growth at 100 µM [14] was -96% and the growth at 0.01 µM [15] was 92%. It also gave a growth at 100 µM [16] of -86%, a growth at 100 µM [17] of -83% and a growth at 100 µM [18] of -80%. The GI50 ([19]; read-out: GI50) was 2350 nM, the CC50 [19, 41] was 26.3 µM and the TGI ([19]; read-out: TGI) was 5.57 µM. The GI50 ([19]; read-out: pGI50 (converted)) was 2340 nM, the CC50 [19, 42] was 26.3 µM and the TGI ([19]; read-out: pTGI (converted)) was 5.62 µM. The growth at 0.1 µM [20] was 100%, the growth at 0.1 µM [21] was 78% and the growth at 0.01 µM [22] was 107%. The growth at 0.1 µM [23] was 108%, the growth at 1 µM [24] was 88% and the growth at 0.01 µM [25] was 98%. For the same compound, the GI50 ([26]; read-out: GI50) was 3.28 µM, the CC50 [26, 41] was 43.2 µM and the TGI ([26]; read-out: TGI) was 12.3 µM. For the same compound, the GI50 ([26]; read-out: pGI50 (converted)) was 3.31 µM, the CC50 [26, 42] was 43.7 µM and the TGI ([26]; read-out: pTGI (converted)) was 12.3 µM. For the same compound, the growth at 100 µM [27] was -70%, the growth at 0.1 µM [28] was 96% and the GI50 ([29]; read-out: GI50) was 2790 nM. It also gave a CC50 [29, 41] greater than 100 µM, a TGI ([29]; read-out: TGI) of 8.51 µM and a GI50 ([29]; read-out: pGI50 (converted)) of 2820 nM. For the same compound, the CC50 [29, 42] was greater than 100 µM, the TGI ([29]; read-out: pTGI (converted)) was 8.51 µM and the growth at 0.1 µM [30] was 102%. The growth at 0.1 µM [31] was 92%, the growth at 0.1 µM [32] was 95% and the growth at 0.1 µM [33] was 94%. The growth at 0.01 µM [34] was 89%, the growth at 0.01 µM [35] was 92% and the growth at 0.01 µM [36] was 100%. The growth at 0.1 µM [37] was 104%, the growth at 0.01 µM [38] was 101% and the growth at 0.01 µM [39] was 93%. For the same compound, the growth at 1 µM [40] was 90%.
